# Like-named read-outs stand apart in the source and are kept apart here. Where a SMILES comes first, the peptide text is derived from it. Bridges are numbered along the chain shown (N, C = ends). Roman numbers before positions name the chains, in order. [ ]: non-standard residue; d: D form. The star is where a group is joined. Tyrosinol = OC[C@H](Cc1ccc(O)cc1)N*; Thr(ol) = C[C@@H](O)[C@H](N)CO; Tle = CC(C)(C)[C@H](N)C(=O)O; Hiv = CC(C)[C@H](O)C(=O)O; dDab = NCC[C@@H](N)C(=O)O; hSer = N[C@@H](CCO)C(=O)O; NHCH(CH2OH)2 = OCC(CO)N*; Dab = NCC[C@H](N)C(=O)O; Dap = NC[C@H](N)C(=O)O
# Legend:
# Format in all cases: cell-based
# [1] = system: Enterobacter cloacae 848840
# Procedure, shortened: (§1)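 Two-fold peptide dilutions in polysorbate 80-containing (0.002% final) cation-adjusted Mueller-Hinton II broth were inoculated with about 10^6 CFU/mL. The MIC was taken as the lowest concentration, in μg/mL, preventing visible growth at 18-20 hours and 35° C.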
# [2] = system: Escherichia coli 926415
# Procedure, shortened: as §1
# [3] = system: Escherichia coli ATCC 25922
# Procedure, shortened: as §1
# [4] = system: Acinetobacter baumannii DSM 30008
# Procedure, shortened: as §1
# [5] = system: Klebsiella pneumoniae 968733
# Procedure, shortened: as §1
# [6] = system: Klebsiella pneumoniae SSI #3010
# Procedure, shortened: as §1
# [7] = system: Pseudomonas aeruginosa ATCC 27853
# Procedure, shortened: as §1
# [8] = system: Acinetobacter baumannii 872842
# Procedure, shortened: as §1
# [9] = system: human red blood cells (hRBC); experiment: Hemolysis
# Procedure, shortened: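 Hemoglobin release from PBS-washed hRBC at 20% (v/v), incubated 1 h at 37° C with peptides at 200 μg/mL, is measured at 540 nm. Values are blank corrected and given as a fraction of Triton X-100 lysis × 100%.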
MIC [1]; 848840,MIC [2]; 926415,MIC ([3]; ATCC 25922),MIC ([4]; DSM 30008),MIC [5]; 968733,MIC ([6]; SSI #3010),MIC ([7]; ATCC 27853),MIC [8]; 872842,Compound,"Hemolysis at 200 μg/mL ([9]; red cells of human, 1 h, 200)","MIC ([1]; Enterobacter cloacae 848840 clinical isolate, Mueller-Hinton II broth)","MIC ([2]; Escherichia coli 926415 clinical isolate, Mueller-Hinton II broth)","MIC ([3]; Escherichia coli ATCC 25922, Mueller-Hinton II broth)","MIC ([4]; Acinetobacter baumannii DSM 30008, Mueller-Hinton II broth)","MIC ([5]; Klebsiella pneumoniae 968733 clinical isolate, Mueller-Hinton II broth)","MIC ([6]; Klebsiella pneumoniae SSI #3010, Mueller-Hinton II broth)","MIC ([7]; Pseudomonas aeruginosa ATCC 27853, Mueller-Hinton II broth)","MIC ([8]; Acinetobacter baumannii 872842 clinical isolate, Mueller-Hinton II broth)","Hemolysis at 200 μg/mL ([9]; 200 μg/mL, human red blood cells)"
0.25 µg/mL,0.5 µg/mL,0.0625 µg/mL,0.125 µg/mL,0.25 µg/mL,0.125 µg/mL,0.25 µg/mL,0.125 µg/mL,CC(C)C[C@@H]1NC(=O)[C@@H](CC(C)C)NC(=O)[C@H](CCN)NC(=O)[C@@H](NC(=O)[C@H](CCN)NC(=O)[C@@H](NC(=O)[C@H](CCN)NC(=O)CC[C@@H]2NC(=O)[C@H](CN)NC(=O)[C@H](Cc3ccc(O)cc3)NC(=O)[C@@H](NC(=O)[C@@H](O)C(C)C)CSSC[C@@H](C(=O)N[C@H](CO)[C@@H](C)O)NC(=O)[C@H](C(C)(C)C)NC(=O)[C@H](CCC(=O)O)NC(=O)[C@H](Cc3c[nH]c4ccccc34)NC(=O)[C@H]([C@@H](C)O)NC(=O)[C@@H](CCN)NC2=O)[C@@H](C)O)CCNC(=O)[C@H]([C@@H](C)O)NC(=O)[C@H](CCN)NC(=O)[C@H](CCN)NC1=O [Ex. 90] (I: H-[Hiv]CY[Dap]E[dDab]TWE[Tle]C[Thr(ol)] / II: [Dab]T[Dab][Dab][Dab][dL]L[Dab][Dab]T; disulfide I:2-I:11; amide I:5-II:N; lactam II:4-II:C),<1%,–,–,–,–,–,–,–,–,–
1 µg/mL,2 µg/mL,0.0625 µg/mL,0.125 µg/mL,2 µg/mL,0.25 µg/mL,0.25 µg/mL,0.5 µg/mL,CC(C)C[C@@H]1NC(=O)[C@@H](CC(C)C)NC(=O)[C@H](CCN)NC(=O)[C@@H](NC(=O)[C@H](CCN)NC(=O)[C@@H](NC(=O)[C@H](CCN)NC(=O)CC[C@@H]2NC(=O)[C@H](CCC(=O)O)NC(=O)[C@H](Cc3ccc(O)cc3)NC(=O)[C@@H](NC(=O)[C@@H](O)C(C)C)CSSC[C@@H](C(=O)N[C@H](CO)[C@@H](C)O)NC(=O)[C@H](C(C)(C)C)NC(=O)[C@H](CN)NC(=O)[C@H](Cc3c[nH]c4ccccc34)NC(=O)[C@H]([C@@H](C)O)NC(=O)[C@@H](CCN)NC2=O)[C@@H](C)O)CCNC(=O)[C@H]([C@@H](C)O)NC(=O)[C@H](CCN)NC(=O)[C@H](CCN)NC1=O [Ex. 91] (I: H-[Hiv]CYEE[dDab]TW[Dap][Tle]C[Thr(ol)] / II: [Dab]T[Dab][Dab][Dab][dL]L[Dab][Dab]T; disulfide I:2-I:11; amide I:5-II:N; lactam II:4-II:C),<1%,–,–,–,–,–,–,–,–,–
0.25 µg/mL,0.25 µg/mL,0.125 µg/mL,0.25 µg/mL,0.5 µg/mL,0.125 µg/mL,0.25 µg/mL,0.5 µg/mL,CC(C)C[C@@H]1NC(=O)[C@@H](CC(C)C)NC(=O)[C@H](CCN)NC(=O)[C@@H](NC(=O)[C@H](CCN)NC(=O)[C@@H](NC(=O)[C@H](CCN)NC(=O)CC[C@@H]2NC(=O)[C@H](CCN)NC(=O)[C@H]([C@@H](C)O)NC(=O)[C@@H](NC(=O)[C@@H](O)C(C)C)CSSC[C@@H](C(=O)N[C@H](CO)Cc3ccc(O)cc3)NC(=O)[C@H](C(C)(C)C)NC(=O)[C@H](CO)NC(=O)[C@H](Cc3c[nH]c4ccccc34)NC(=O)[C@H](CCO)NC(=O)[C@@H](CCN)NC2=O)[C@@H](C)O)CCNC(=O)[C@H]([C@@H](C)O)NC(=O)[C@H](CCN)NC(=O)[C@H](CCN)NC1=O [Ex. 93] (I: H-[Hiv]CT[Dab]E[dDab][hSer]WS[Tle]C-Tyrosinol / II: [Dab]T[Dab][Dab][Dab][dL]L[Dab][Dab]T; disulfide I:2-I:11; amide I:5-II:N; lactam II:4-II:C),<1%,–,–,–,–,–,–,–,–,–
–,–,–,–,–,–,–,–,CC(=O)N[C@H](C(=O)N[C@H]1CSSC[C@@H](C(=O)N[C@H](CO)Cc2ccc(O)cc2)NC(=O)[C@H](C(C)(C)C)NC(=O)[C@H](CO)NC(=O)[C@H](Cc2c[nH]c3ccccc23)NC(=O)[C@H](CCO)NC(=O)[C@@H](CCN)NC(=O)[C@H](CCC(=O)N[C@@H](CCN)C(=O)N[C@H](C(=O)N[C@@H](CCN)C(=O)N[C@H]2CCNC(=O)[C@H]([C@@H](C)O)NC(=O)[C@H](CCN)NC(=O)[C@H](CCN)NC(=O)[C@H](CC(C)C)NC(=O)[C@@H](CC(C)C)NC(=O)[C@H](CCN)NC2=O)[C@@H](C)O)NC(=O)[C@H](CCN)NC(=O)[C@H](CO)NC1=O)C(C)C [Ex. 94] (I: Ac-VCS[Dab]E[dDab][hSer]WS[Tle]C-Tyrosinol / II: [Dab]T[Dab][Dab][Dab][dL]L[Dab][Dab]T; disulfide I:2-I:11; amide I:5-II:N; lactam II:4-II:C),–,1 µg/mL,0.25 µg/mL,0.0625 µg/mL,0.125 µg/mL,0.25 µg/mL,0.0625 µg/mL,0.25 µg/mL,0.25 µg/mL,<1%
4 µg/mL,0.125 µg/mL,0.03125 µg/mL,0.0625 µg/mL,0.125 µg/mL,0.125 µg/mL,0.125 µg/mL,0.125 µg/mL,CC(C)C[C@@H]1NC(=O)[C@@H](CC(C)C)NC(=O)[C@H](CCN)NC(=O)[C@@H](NC(=O)[C@H](CCN)NC(=O)[C@@H](NC(=O)[C@H](CCN)NC(=O)CC[C@@H]2NC(=O)[C@H](CCN)NC(=O)[C@H](Cc3ccc(O)cc3)NC(=O)[C@@H](NC(=O)[C@@H](O)C(C)C)CSSC[C@@H](C(=O)NC(CO)CO)NC(=O)[C@H](C(C)(C)C)NC(=O)[C@H](CO)NC(=O)[C@H](Cc3c[nH]c4ccccc34)NC(=O)[C@H](CCO)NC(=O)[C@@H](CCN)NC2=O)[C@@H](C)O)CCNC(=O)[C@H]([C@@H](C)O)NC(=O)[C@H](CCN)NC(=O)[C@H](CCN)NC1=O [Ex. 95] (I: H-[Hiv]CY[Dab]E[dDab][hSer]WS[Tle]C-{NHCH(CH2OH)2} / II: [Dab]T[Dab][Dab][Dab][dL]L[Dab][Dab]T; disulfide I:2-I:11; amide I:5-II:N; lactam II:4-II:C),<1%,–,–,–,–,–,–,–,–,–
2 µg/mL,2 µg/mL,0.125 µg/mL,0.25 µg/mL,4 µg/mL,0.25 µg/mL,0.25 µg/mL,2 µg/mL,CC(=O)N[C@@H](Cc1ccc(O)cc1)C(=O)N[C@H]1CSSC[C@@H](C(=O)NC(CO)CO)NC(=O)[C@H](Cc2c[nH]c3ccccc23)NC(=O)[C@H](CO)NC(=O)[C@H](C(C)C)NC(=O)[C@H](CCO)NC(=O)[C@@H](CCN)NC(=O)[C@H](CCC(=O)N[C@@H](CCN)C(=O)N[C@H](C(=O)N[C@@H](CCN)C(=O)N[C@H]2CCNC(=O)[C@H]([C@@H](C)O)NC(=O)[C@H](CCN)NC(=O)[C@H](CCN)NC(=O)[C@H](CC(C)C)NC(=O)[C@@H](CC(C)C)NC(=O)[C@H](CCN)NC2=O)[C@@H](C)O)NC(=O)[C@H](CCN)NC(=O)[C@H](C(C)C)NC1=O [Ex. 98] (I: Ac-YCV[Dab]E[dDab][hSer]VSWC-{NHCH(CH2OH)2} / II: [Dab]T[Dab][Dab][Dab][dL]L[Dab][Dab]T; disulfide I:2-I:11; amide I:5-II:N; lactam II:4-II:C),<1%,–,–,–,–,–,–,–,–,–
0.25 µg/mL,0.125 µg/mL,0.0625 µg/mL,0.0625 µg/mL,0.25 µg/mL,0.125 µg/mL,0.125 µg/mL,0.25 µg/mL,CC(C)C[C@@H]1NC(=O)[C@@H](CC(C)C)NC(=O)[C@H](CCN)NC(=O)[C@@H](NC(=O)[C@H](CCN)NC(=O)[C@H](CO)NC(=O)[C@H](CCN)NC(=O)CC[C@@H]2NC(=O)[C@H](CN)NC(=O)[C@H](Cc3ccc(O)cc3)NC(=O)[C@@H](NC(=O)[C@@H](O)C(C)C)CSSC[C@@H](C(=O)N[C@H](CO)[C@@H](C)O)NC(=O)[C@H](C(C)(C)C)NC(=O)[C@H](CO)NC(=O)[C@H](Cc3c[nH]c4ccccc34)NC(=O)[C@H]([C@@H](C)O)NC(=O)[C@@H](CCN)NC2=O)CCNC(=O)[C@H]([C@@H](C)O)NC(=O)[C@H](CCN)NC(=O)[C@H](CCN)NC1=O [Ex. 106] (I: H-[Hiv]CY[Dap]E[dDab]TWS[Tle]C[Thr(ol)] / II: [Dab]S[Dab][Dab][Dab][dL]L[Dab][Dab]T; disulfide I:2-I:11; amide I:5-II:N; lactam II:4-II:C),<1%,–,–,–,–,–,–,–,–,–
